The text below walks through data of article PMC9144480 (Pharmaceuticals, 2022).

The test system of assay [1] is pseudovirus bearing SARS-CoV-2 S protein, delta (B.1.617.2) variant. Briefly: microbe, parasite or virus in culture. Format: cell-based. Conditions: HEK-293T, read-out: IC50, inhibition of cell entry of pseudovirus (delta var.).
For assay [2], the system named is SARS-CoV-2 spike protein pseudotyped VSV-ΔG. Description: microbe, parasite or virus in culture. Format: cell-based.
Where [3] appears, read: Severe acute respiratory syndrome coronavirus 2, Vero C1008, read-out: IC50, inhibition of VSV-ΔG pseudovirus entry.

SMILES strings stand for the structures. Like-named read-outs stand apart in the source and are kept apart here.

With `CCN(CCO)CCCC(C)Nc1ccnc2cc(Cl)ccc12` (stereo not shown) [HCQ, hydroxychloroquine], in assay [1], the IC50 stood at 75.1 µM.

For the compound `O=S(=O)(O)c1ccc(N=Nc2c(O)ccc3cc(S(=O)(=O)O)ccc23)cc1` [SY(FD&C#6), sunset yellow FCF], the IC50 in assay [1] was greater than 500 µM; in assay [2] (setting [3]), greater than 250 µM.

Take `CN(C)c1ccc2nc3ccc(=[N+](C)C)cc-3sc2c1` [MeBlu, methylene blue]: the IC50 in assay [1] was found to be 4.7 µM; in assay [2] (setting [3]), 2.5 µM; in assay [2] (read-out: IC50, inhibition of VSV-ΔG pseudovirus entry), 2.46 µM.

`Nc1c(/N=N/c2ccc([N+](=O)[O-])cc2)c(S(=O)(=O)O)cc2cc(S(=O)(=O)O)c(/N=N/c3ccccc3)c(O)c12` [NBlBk, naphthol blue black]: the IC50 in assay [1] was 388 µM.
